The record followed here is US6632963B1, “Bicyclic aromatic compounds and pharmaceutical/cosmetic compositions comprised thereof” (Galderma Research & Development S.N.C., priority 1998, dated 2003).

Data set [1] has as its target T1, RXRα (Homo sapiens, UniProt P19793).
T1 sequence (P19793 1-462): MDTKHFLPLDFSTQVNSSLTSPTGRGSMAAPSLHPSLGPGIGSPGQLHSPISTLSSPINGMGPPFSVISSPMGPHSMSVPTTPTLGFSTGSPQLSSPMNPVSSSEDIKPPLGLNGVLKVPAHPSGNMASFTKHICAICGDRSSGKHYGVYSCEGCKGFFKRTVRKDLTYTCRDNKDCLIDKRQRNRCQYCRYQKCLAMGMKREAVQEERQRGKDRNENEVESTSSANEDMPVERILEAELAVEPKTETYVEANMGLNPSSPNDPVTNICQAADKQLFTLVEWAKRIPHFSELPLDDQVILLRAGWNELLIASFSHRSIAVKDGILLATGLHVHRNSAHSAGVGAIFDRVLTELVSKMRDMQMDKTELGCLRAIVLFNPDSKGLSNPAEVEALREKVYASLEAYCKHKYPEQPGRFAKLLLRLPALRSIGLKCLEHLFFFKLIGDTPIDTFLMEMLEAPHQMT
Description: RXRα transactivation, agonist activity. It is filed as cell-based. The text has this:
The binding and transactivation properties as RXR-receptor agonists can be determined by methods known in the art, such as, for example: Levin et al., Nature, 355, 359-61 (1992); Allenby et al., Proc. Natl. Acad. Sci., 90, 30-4 (1993).

Data set [2] addresses T1, RXRα. In words: cell-based.

As a reminder, the melting point is the temperature, or range, at which the solid turns liquid. In general, AC50 refers to the concentration giving half of the maximal activity seen. Higher therefore signals weaker potency. The term IC50 denotes the concentration needed to halve the response being measured. Read a high IC50 as weaker potency in that assay.

`COCOc1c(-c2cccc(C=CC(=O)O)c2)ccc2c1C(C)(C)CCC2(C)C` displayed a melting point of 188 to 189 °C.
For `COCOc1ccc(C#CC(=O)O)cc1-c1cc2c(cc1C)C(C)(C)CCC2(C)C` [Compound 7, [4-Methoxymethoxy-3-(3,5,5,8,8-pentamethyl-5,6,7,8-tetrahydro-2-naphthyl)phenyl]propynoic Acid], the half-maximal activity concentration (AC50) in data set [1] is 0.032 µM.
Consider `CCCCCOc1c(-c2cc(C=CC(=O)O)ccc2O)cc(C(C)(C)C)cc1C(C)(C)C` [Compound 3, 3-(3′,5′-di-tert-Butyl-6-hydroxy-2′-pentyloxy-3-biphenylyl)acrylic Acid], for which, in data set [2], the half-inhibitory concentration (IC50) was found to be 0.729 µM. The “RXRα transactivation Agonist AC50 (nM)” value in data set [1] was “inactive”.
For `CC(C)(C)c1cc(-c2cc(C=CC(=O)O)ccc2O)c(OCc2ccccc2)c(C(C)(C)C)c1` [Compound 2, 3-(2′-Benzyloxy-3′,5′-di-tert-butyl-6-hydroxy-3-biphenylyl)acrylic Acid], the IC50 in data set [2] was 0.92 µM. For the same compound, in data set [1], the “RXRα transactivation Agonist AC50 (nM)” value was “inactive”.
In the case of `COc1c(-c2cccc(C=CC(=O)O)c2)cc(C(C)(C)C)cc1C(C)(C)C` [Compound 1, 3-(3′,5′-di-tert-Butyl-2′-methoxy-3-biphenylyl)acrylic Acid], in data set [1], the activity was half-maximal at 0.384 µM (AC50). This lies in the sub-micromolar range.
In data set [2], `CCCOc1cc2c(cc1-c1cc(C=CC(=O)O)ccc1OCOC)C(C)(C)CCC2(C)C` [Compound 8, 3-[3-(3-Propyloxy-5,5,8,8-tetramethyl-5,6,7,8-tetrahydro-2-naphthyl)-4-methoxymethoxyphenyl]acrylic Acid] yielded an IC50 of 1.1 µM. For the same compound, the “RXRα transactivation Agonist AC50 (nM)” value in data set [1] was “inactive”.
For `CC1(C)CCC(C)(C)c2cc(-c3cc(C=CC(=O)O)ccc3O)c(OCc3ccccc3)cc21` [Compound 6, 3-[3-(3-Benzyloxy-5,5,8,8-tetramethyl-5,6,7,8-tetrahydro-2-naphthyl)-4-hydroxyphenyl]acrylic Acid], in that order: 0.505 µM and “inactive”.
As for `COc1c(-c2cc(C=CC(=O)O)ccc2O)cc(C(C)(C)C)cc1C(C)(C)C` [Compound 4, 3-(3′,5′-di-tert-Butyl-6-hydroxy-2′-methoxy-3-biphenylyl)acrylic Acid], the activity in data set [1] was half-maximal at 0.165 µM (AC50). This counts as sub-micromolar.
Turning to `COCOc1ccc(C=CC(=O)O)cc1-c1cc2c(cc1OCc1ccccc1)C(C)(C)CCC2(C)C` [Compound 5, 3-[3-(3-Benzyloxy-5,5,8,8-tetramethyl-5,6,7,8-tetrahydro-2-naphthyl)-4-methoxymethoxyphenyl]acrylic Acid], 4 µM corresponded to half-maximal inhibition in data set [2] (IC50). For the same compound, the “RXRα transactivation Agonist AC50 (nM)” value in data set [1] is “inactive”.
Consider `CCCCCOc1cc2c(cc1-c1cc(C=CC(=O)O)ccc1OCOC)C(C)(C)CCC2(C)C` [Compound 9, 3-[3-(3-Pentyloxy-5,5,8,8-tetramethyl-5,6,7,8-tetrahydro-2-naphthyl)-4-methoxymethoxyphenyl]acrylic Acid], for which, in data set [2], the IC50 was 0.631 µM. Also, the “RXRα transactivation Agonist AC50 (nM)” value in data set [1] was “inactive”.
